Measured values: patent US8916593B2, “Alkoxy-substituted 2-aminopyridines as ALK inhibitors” (Pfizer Inc., priority 2010, dated 2014)
pIC50, pKi: −log10 of the molar value. Counter-ions that a name gives are not always drawn. Like-named read-outs stand apart in the source and are kept apart here.

Columns and labels:
cMet enzyme = target: T1, cMet enzyme (Homo sapiens, UniProt P08581); test: cMet enzymatic activity assay; format: biochemical; conditions: purified cMet enzyme 7.5 nM, ATP 17 μM (Km)
T1 construct: RTC Lot#032006
Procedure: cMet Enzymatic Activity Assay
Compounds were added at a final concentration of 2% DMSO in half-log dilutions, starting at 20 μM final concentration. The reactions were initiated by addition of 10 μL of peptide/ATP mix to 10 μL enzyme and 5 μL of compound in 384-well plate. […] Substrate and phosphorylated product were separated with an upstream voltage of −2650 V, a downstream voltage of −500V, and a screen pressure of −1.5 psi. The relative peak heights of substrate and product were measured and ratios were calculated using HTS Well Analyzer Software version 5.2.43 from the manufacturer.

[1] = target: EML4-ALK wt v1 in NIH-3T3 cells (Homo sapiens, UniProt Q9UM73)
ALK enzyme = target: T2, ALK enzyme (Homo sapiens, UniProt Q9UM73); test: ALK enzymatic activity assay 1; format: biochemical
T2 construct: purchased Invitrogen PV4185
Procedure: ALK Enzymatic Activity Assay 1
Compounds were added at a final concentration of 1% DMSO in half-log dilutions, starting at 20 μM final concentration. The reactions were initiated by the addition of 10 μL of peptide/ATP mix to 10 μL enzyme and 2 μL of compound in 384-well plate. […] On the 12-sipper chip, substrate and phosphorylated product were separated with an upstream voltage of −2650 V, a downstream voltage of −500 V, and a screen pressure of −1.5 psi. The relative peak heights of substrate and product were measured and ratios were calculated using HTS Well Analyzer Software version 5.2.43 from the manufacturer.

[2] = target: T3, human recombinant wild-type ALK kinase domain (amino acids 1093-1411) (Homo sapiens, UniProt Q9UM73); test: ALK enzyme assay 2 (microfluidic mobility shift assay); format: biochemical;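 also: kinase reaction run 1 h at room temperature, conversion quantified by electrophoretic separation of fluorescent peptide substrate from phosphorylated product, about 15-20% turnover without inhibitor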
T3 construct: ALK kinase domain (amino acids 1093-1411); made in house
T3 sequence (Q9UM73 1093-1411): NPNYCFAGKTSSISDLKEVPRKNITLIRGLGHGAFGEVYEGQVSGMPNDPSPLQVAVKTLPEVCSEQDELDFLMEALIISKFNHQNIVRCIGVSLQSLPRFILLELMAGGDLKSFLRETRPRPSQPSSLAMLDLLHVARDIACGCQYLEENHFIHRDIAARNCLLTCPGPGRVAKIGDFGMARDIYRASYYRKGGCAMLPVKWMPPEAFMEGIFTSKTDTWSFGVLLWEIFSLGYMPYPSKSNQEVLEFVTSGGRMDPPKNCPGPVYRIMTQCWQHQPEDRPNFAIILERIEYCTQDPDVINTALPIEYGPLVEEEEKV
Procedure: The reactions were incubated for 1 h at room temperature, stopped by the addition of 0.1 M EDTA, pH 8, and the extent of reactions (˜15-20% conversion with no inhibitor) was determined after electrophoretic separation of the fluorescently labeled peptide substrate and phosphorylated product on an LabChip EZ Reader II (Caliper Life Sciences, Hopkinton, Mass.).

T1 sequence (P08581 25-1390): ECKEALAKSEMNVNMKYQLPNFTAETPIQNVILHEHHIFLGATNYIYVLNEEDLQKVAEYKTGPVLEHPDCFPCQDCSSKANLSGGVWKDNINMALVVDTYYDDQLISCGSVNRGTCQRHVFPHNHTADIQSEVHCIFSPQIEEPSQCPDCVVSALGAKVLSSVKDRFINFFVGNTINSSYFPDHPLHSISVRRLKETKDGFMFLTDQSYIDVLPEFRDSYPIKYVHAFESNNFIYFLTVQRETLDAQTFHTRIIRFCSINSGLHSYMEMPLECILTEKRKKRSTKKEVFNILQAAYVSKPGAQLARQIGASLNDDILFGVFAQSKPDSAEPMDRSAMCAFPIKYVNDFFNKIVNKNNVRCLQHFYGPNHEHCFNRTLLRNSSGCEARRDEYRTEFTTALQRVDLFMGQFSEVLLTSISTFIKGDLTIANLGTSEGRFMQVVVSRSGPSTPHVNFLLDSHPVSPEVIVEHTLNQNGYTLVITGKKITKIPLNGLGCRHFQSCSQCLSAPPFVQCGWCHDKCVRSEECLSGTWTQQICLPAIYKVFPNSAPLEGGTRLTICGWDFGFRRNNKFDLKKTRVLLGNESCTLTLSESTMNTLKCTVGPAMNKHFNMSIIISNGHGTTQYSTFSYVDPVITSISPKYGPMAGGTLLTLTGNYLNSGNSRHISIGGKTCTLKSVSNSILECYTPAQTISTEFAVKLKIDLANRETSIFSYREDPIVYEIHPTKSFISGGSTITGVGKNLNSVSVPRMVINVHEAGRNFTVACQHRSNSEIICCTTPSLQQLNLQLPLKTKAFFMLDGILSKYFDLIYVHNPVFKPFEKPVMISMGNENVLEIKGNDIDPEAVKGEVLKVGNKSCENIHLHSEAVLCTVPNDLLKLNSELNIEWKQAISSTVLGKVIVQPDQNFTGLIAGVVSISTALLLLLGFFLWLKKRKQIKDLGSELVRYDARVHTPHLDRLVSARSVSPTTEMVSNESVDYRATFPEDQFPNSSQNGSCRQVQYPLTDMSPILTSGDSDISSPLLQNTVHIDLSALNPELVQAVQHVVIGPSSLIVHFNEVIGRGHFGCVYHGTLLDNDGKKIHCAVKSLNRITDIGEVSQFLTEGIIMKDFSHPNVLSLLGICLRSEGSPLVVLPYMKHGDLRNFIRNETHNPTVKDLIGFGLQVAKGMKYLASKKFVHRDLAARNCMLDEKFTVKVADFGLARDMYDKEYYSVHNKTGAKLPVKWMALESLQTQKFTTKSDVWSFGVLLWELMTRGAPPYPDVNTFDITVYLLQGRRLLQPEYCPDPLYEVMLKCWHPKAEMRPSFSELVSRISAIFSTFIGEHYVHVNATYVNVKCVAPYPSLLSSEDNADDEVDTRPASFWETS
EML4-ALK wt v1 in NIH-3T3 cells, sequence (Q9UM73 with tags, fused parts or gaps): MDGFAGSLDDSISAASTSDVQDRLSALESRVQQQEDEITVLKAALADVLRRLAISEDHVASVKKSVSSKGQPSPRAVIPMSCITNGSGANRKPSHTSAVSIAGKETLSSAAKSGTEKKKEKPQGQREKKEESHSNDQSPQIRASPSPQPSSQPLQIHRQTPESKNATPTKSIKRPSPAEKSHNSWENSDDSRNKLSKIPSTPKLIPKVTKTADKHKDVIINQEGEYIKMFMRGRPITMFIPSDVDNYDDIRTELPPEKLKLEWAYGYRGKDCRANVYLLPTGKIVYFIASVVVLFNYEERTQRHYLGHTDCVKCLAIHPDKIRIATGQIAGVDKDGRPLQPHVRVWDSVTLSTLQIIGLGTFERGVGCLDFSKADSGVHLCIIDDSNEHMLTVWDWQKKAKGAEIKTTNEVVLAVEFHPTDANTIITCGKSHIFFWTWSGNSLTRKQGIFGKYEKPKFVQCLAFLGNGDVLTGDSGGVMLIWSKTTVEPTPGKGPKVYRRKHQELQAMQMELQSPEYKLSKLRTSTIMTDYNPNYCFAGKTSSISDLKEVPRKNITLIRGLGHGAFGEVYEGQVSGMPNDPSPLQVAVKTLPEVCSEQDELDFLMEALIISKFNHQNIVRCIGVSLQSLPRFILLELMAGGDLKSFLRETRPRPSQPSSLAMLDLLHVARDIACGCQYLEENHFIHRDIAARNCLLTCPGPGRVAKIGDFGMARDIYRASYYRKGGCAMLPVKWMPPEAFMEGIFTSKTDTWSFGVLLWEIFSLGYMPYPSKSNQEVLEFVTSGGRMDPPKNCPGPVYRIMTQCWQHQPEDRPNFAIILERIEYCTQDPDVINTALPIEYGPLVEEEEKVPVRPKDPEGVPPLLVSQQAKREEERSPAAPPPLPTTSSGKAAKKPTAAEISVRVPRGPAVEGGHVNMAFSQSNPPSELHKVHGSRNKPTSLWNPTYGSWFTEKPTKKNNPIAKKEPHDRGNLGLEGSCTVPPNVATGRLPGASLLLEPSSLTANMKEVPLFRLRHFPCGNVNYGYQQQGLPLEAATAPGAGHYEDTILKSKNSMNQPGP
T2 sequence (Q9UM73 19-1620): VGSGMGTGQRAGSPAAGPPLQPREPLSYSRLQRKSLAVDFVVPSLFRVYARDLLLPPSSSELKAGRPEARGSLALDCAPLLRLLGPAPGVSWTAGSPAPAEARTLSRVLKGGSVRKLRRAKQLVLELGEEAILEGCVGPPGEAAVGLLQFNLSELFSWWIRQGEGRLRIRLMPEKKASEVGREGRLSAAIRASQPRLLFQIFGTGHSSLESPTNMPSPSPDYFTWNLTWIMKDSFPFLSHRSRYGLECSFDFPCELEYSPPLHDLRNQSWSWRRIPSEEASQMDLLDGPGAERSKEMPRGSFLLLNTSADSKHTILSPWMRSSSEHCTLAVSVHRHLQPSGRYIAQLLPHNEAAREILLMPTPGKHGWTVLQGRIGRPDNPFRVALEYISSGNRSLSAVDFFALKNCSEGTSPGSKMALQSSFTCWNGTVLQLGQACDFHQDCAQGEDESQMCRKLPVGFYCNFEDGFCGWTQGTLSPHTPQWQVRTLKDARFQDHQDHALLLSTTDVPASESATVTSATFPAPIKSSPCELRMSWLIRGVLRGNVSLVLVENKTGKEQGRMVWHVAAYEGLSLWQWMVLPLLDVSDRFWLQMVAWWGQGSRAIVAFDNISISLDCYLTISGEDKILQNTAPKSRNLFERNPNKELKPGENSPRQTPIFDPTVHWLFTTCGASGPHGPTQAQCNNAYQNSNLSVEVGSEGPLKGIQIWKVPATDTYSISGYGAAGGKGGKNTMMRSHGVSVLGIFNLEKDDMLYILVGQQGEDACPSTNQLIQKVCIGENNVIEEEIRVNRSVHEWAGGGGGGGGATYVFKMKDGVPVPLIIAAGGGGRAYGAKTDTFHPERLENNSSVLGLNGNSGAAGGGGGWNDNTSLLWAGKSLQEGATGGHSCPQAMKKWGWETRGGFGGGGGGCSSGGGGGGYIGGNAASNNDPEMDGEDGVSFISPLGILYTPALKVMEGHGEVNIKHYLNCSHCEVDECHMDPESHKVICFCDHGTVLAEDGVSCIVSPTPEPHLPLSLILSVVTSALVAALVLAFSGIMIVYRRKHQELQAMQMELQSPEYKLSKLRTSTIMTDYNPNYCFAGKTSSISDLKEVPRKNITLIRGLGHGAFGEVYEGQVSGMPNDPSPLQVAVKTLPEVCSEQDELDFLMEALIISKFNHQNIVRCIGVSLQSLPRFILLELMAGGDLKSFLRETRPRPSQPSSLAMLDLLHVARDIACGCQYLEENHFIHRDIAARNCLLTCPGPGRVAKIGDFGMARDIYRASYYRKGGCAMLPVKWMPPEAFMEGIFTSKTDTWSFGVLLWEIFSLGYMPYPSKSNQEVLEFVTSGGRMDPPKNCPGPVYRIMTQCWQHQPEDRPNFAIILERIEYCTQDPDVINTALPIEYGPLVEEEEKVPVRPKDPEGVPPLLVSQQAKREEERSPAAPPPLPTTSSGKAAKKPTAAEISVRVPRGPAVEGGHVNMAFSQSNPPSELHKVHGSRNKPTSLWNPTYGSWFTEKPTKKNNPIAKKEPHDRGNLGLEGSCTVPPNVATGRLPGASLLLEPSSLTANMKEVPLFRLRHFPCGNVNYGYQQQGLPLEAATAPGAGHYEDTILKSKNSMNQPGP

SMILES | pIC50 (cMet enzyme) | pIC50 [1] | pIC50 (ALK enzyme) | pKi [2] | pIC50 ([1]; read-out: ELISA assay for WT EML4-ALK (IC50), cellular phospho-ALK (Tyr1604), NIH-3T3 EML4-ALK wt v1 cells, 1 hour) | pIC50 (ALK enzyme; purified ALK enzyme 10 nM, ATP 25 μM (Km))
COc1ccc(F)cc1[C@@H](C)Oc1cc(-c2cncn2C)cnc1N [Example 22, 3-[(1R)-1-(5-fluoro-2-methoxyphenyl)-ethoxy]-5-(1-methyl-1H-imidazol-5-yl)pyridin-2-amine] | 5.43 | 7.32 | 7.42 |  |  | 
COc1ncc(F)cc1C(C)Oc1cc(-c2c[nH]nc2C)cnc1N (stereo not drawn) [Example 41, 3-[1-(5-fluoro-2-methoxypyridin-3-yl)ethoxy]-5-(3-methyl-1H-pyrazol-4-yl)pyridin-2-amine] | 5.25 | 7.23 | 7.80 | 9.04 |  | 
CC(Oc1cc(-c2cn(C)cn2)cnc1N)c1cc(F)ccc1Cl (stereo not drawn) [Example 23, 3-[1-(2-chloro-5-fluorophenyl)-ethoxy]-5-(1-methyMH-imidazol-4-yl)pyridin-2-amine] | < 4.72 |  |  | 7.35 | 5.97 | 6.57
CC(Oc1cc(-c2ccnn2C)cnc1N)c1cc(F)cc2cccnc12 (stereo not drawn) [Example 51, 3-[1-(6-fluoroquinolin-8-yl)ethoxy]-5-(1-methyl-1H-pyrazol-5-yl)pyridin-2-amine] | 5.10 | 5.84 | 7.34 | 7.21 |  | 
CC(Oc1cc(-c2ccnn2C)cnc1N)c1cc(F)ccc1-n1ccnn1 (stereo not drawn) [Example 32, 3-{1-[5-fluoro-2-(1H-1,2,3-triazol-1-yl)phenyl]-ethoxy}-5-(1-methyl-1H-pyrazol-5-yl)pyridin-2-amine] | < 4.70 | 6.05 | 6.98 | 7.44 |  | 
COc1ccc(F)cc1C(C)Oc1cc(-c2c(C)n[nH]c2C)cnc1N (stereo not drawn) [Example 6, 5-(3,5-dimethyl-1H-pyrazol-4-yl)-3-[1-(5-fluoro-2-methoxyphenyl)ethoxy]-pyridin-2-amine] | 5.17 |  | 7.47 | 9.21 |  | 
COc1ccc(F)cc1C(C)Oc1cc(-c2cccnc2OCCO)cnc1N (stereo not drawn) [Example 19, 2-{6′-Amino-5′-[1-(5-fluoro-2-methoxy-phenyl)-ethoxy]-[3,3]bipyridinyl-2-yloxy}-ethanol] | < 4.71 | 7.27 | 7.10 | 8.98 |  | 
COc1ccc(F)cc1C(C)Oc1cc(-c2c(CO)cnn2C)cnc1N (stereo not drawn) [Example 18, (5-{6-amino-5-[1-(5-fluoro-2-methoxyphenyl)ethoxy]pyridin-3-yl}-1-methyl-1H-pyrazol-4-yl)methanol] | < 4.70 | 6.38 | 7.03 | 8.09 |  | 
COc1ccc(F)cc1C(C)Oc1cc(-c2c(C)nnn2C)cnc1N (stereo not drawn) [Example 10, 5-(1,4-dimethyl-1H-1,2,3-triazol-5-yl)-3-[1-(5-fluoro-2-methoxyphenyl)ethoxy]-pyridin-2-amine] | < 4.70 | 6.44 | 7.07 |  |  | 
COc1ccc(F)cc1C(C)Oc1cc(-c2cnc(N)nc2C)cnc1N (stereo not drawn) [Example 5, 5-{6-amino-5-[1-(5-fluoro-2-methoxyphenyl)ethoxy]-pyridin-3-yl}-4-methylpyrimidin-2-amine] | 4.89 |  | 7.32 |  |  | 
C[C@@H](Oc1cc(-c2scnc2CO)cnc1N)c1cc(F)ccc1-n1nccn1 [Example 28] | 4.89 |  | 7.20 |  |  | 
C[C@@H](Oc1cc(-c2c(F)cnn2C)cnc1N)c1cc(F)ccc1-n1nccn1 [Example 29] | 5.13 | 6.82 | 7.52 |  |  | 
COc1ccc(F)cc1C(C)Oc1cc(-c2scnc2CO)cnc1N (stereo not drawn) [Example 14, (5-{6-amino-5-[1-(5-fluoro-2-methoxyphenyl)ethoxy]-pyridin-3-yl}-1,3-thiazol-4-yl)methanol] | 5.08 |  | 7.13 |  |  | 
COc1ccc(F)cc1C(C)Oc1cc(-c2ccnn2C)cnc1N (stereo not drawn) [Example 43, 3-[1-(5-fluoro-2-methoxyphenyl)-ethoxy]-5-(1-methyl-1H-pyrazol-5-yl)pyridin-2-amine monohydrochloride] | 5.29 |  | 7.46 | > 9.60 |  | 
